Experimental data published in patent US8729014B2, “Specific HCV NS3 protease inhibitors” (RFS Pharma, LLC, priority 2010, dated 2014).

Assays:
[1] = Cytotoxicity assay in human PBM cells; type: cell-based; conditions: human, human PBM cells
Protocol: (§1) The toxicity of the compounds was assessed in Vero, human PBM, CEM (human lymphoblastoid), MT-2, and HepG2 cells, as described previously (see Schinazi R. F., Sommadossi J.-P., Saalmann V., Cannon D. L., Xie M.-Y., Hart G. C., Smith G. A. & Hahn E. F. Antimicrob. Agents Chemother. 1990, 34, 1061-67). Cycloheximide was included as positive cytotoxic control, and untreated cells exposed to solvent were included as negative controls. The cytotoxicity IC50 was obtained from the concentration-response curve using the median effective method described previously (see Chou T.-C. & Talalay P. Adv. Enzyme Regul. 1984, 22, 27-55; Belen'kii M. S. & Schinazi R. F. Antiviral Res. 1994, 25,1-11).

[2] = test system: human PBM cells; test: Cytotoxicity assay in human PBM cells; type: cell-based; conditions: Homo sapiens, PBMC; PBM cells, 100 μM
Protocol: as §1

[3] = Cytotoxicity assay in CEM cells; type: cell-based, human; conditions: human, CEM (human lymphoblastoid) cells
Protocol: as §1

[4] = test system: CEM (human lymphoblastoid) cells; test: Cytotoxicity assay in CEM cells; type: cell-based; conditions: Homo sapiens, CCRF-CEM, 100 μM
Protocol: as §1

[5] = test system: Huh 7 Clone B cells (rRNA); test: HCV replicon assay, cytotoxicity by rRNA; type: cell-based; conditions: five days
Protocol: (§2) Huh 7 Clone B cells containing HCV replicon RNA would be seeded in a 96-well plate at 5000 cells/well, and the compounds tested at 10 μM in triplicate immediately after seeding. Following five days incubation (37° C., 5% CO2), total cellular RNA was isolated by using versaGene RNA purification kit from Gentra. Replicon RNA and an internal control (TaqMan rRNA control reagents, Applied Biosystems) were amplified in a single step multiplex Real Time RT-PCR Assay. The antiviral effectiveness of the compounds was calculated by subtracting the threshold RT-PCR cycle of the test compound from the threshold RT-PCR cycle of the no-drug control (ΔCt HCV). A ΔCt of 3.3 equals a 1-log reduction (equal to 90% less starting material) in Replicon RNA levels. The cytotoxicity of the compounds was also calculated by using the ΔCt rRNA values. (2′-Me-C) was used as the control. To determine EC90 and IC50 values^2, ΔCt: values were first converted into fraction of starting material^3 and then were used to calculate the % inhibition.

[6] = test system: cellular rRNA (cytotoxicity marker); test: HCV replicon assay, cytotoxicity by rRNA; type: cell-based; conditions: human, Huh 7 Clone B cells containing HCV replicon RNA; rRNA, Huh 7 Clone B cells
Protocol: as §2

[7] = target: T1, Elastase (Human Neutrophil) (Homo sapiens, UniProt P08246); test: Inhibition of human proteases: elastase; type: biochemical
T1 construct: purchased Athens Research and Technology 16-14-051200
T1 sequence (P08246 30-267): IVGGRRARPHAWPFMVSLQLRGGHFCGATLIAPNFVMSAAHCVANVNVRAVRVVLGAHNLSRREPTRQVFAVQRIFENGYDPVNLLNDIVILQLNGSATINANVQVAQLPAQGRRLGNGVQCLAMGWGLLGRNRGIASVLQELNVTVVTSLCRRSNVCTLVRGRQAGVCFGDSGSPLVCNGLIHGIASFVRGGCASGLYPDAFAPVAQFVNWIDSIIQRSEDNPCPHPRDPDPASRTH
Protocol: (§3) In an effort to circumvent similar toxicities, new protease inhibitors were evaluated for inhibition of a panel of important human proteases. The enzymes tested are Elastase (Neutrophil), Plasmin, Thrombin, and Cathepsin S.
Elastase (Human Neutrophil (Cat #16-14-051200 Athens Research and Technology, Athens Ga.)): Reactions were conducted in a sample volume of 100 μL per well in a clear 96 well plate. A 2× assay buffer was made containing 200 mM Tris-HCl (pH 7.5), 150 mM NaCl and 50% glycerol. For each sample 50 μL 2× assay buffer was added to each well. The substrate (MeOSuc-AAPV-pNA, Chromogenic Substrate, Cat #P-213, Enzo Life Sciences, Plymouth Meeting, Pa.; 50 mM stock in DMSO) was added to a final concentration of 1 mM. The drug dilutions were added (25 μL) at 4× concentrations in water. Finally, a mixture was made of 1 μL elastase and 22 μL water for each sample and 23 μL was added to each well. The samples were incubated at room temperature for 30 min. The absorbance at 405 nm was read on the Victor 3 plate reader. All samples were tested in duplicate. Results are shown as blank adjusted (no Elastase) percentages of maximum absorbance, which was given by a no inhibitor control.

[8] = target: T2, Plasmin (Homo sapiens, UniProt P00747); test: Inhibition of human proteases: plasmin; type: biochemical
T2 construct: purchased Anaspec
T2 sequence (P00747 581-810 limits assumed): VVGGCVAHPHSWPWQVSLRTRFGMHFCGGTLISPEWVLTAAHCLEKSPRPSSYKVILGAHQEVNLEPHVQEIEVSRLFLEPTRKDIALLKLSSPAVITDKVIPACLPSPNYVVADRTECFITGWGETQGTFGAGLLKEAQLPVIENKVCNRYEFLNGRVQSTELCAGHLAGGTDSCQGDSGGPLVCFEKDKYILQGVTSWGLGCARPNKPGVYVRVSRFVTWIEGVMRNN
T2 sequence (P00747 97-580 partner limits assumed): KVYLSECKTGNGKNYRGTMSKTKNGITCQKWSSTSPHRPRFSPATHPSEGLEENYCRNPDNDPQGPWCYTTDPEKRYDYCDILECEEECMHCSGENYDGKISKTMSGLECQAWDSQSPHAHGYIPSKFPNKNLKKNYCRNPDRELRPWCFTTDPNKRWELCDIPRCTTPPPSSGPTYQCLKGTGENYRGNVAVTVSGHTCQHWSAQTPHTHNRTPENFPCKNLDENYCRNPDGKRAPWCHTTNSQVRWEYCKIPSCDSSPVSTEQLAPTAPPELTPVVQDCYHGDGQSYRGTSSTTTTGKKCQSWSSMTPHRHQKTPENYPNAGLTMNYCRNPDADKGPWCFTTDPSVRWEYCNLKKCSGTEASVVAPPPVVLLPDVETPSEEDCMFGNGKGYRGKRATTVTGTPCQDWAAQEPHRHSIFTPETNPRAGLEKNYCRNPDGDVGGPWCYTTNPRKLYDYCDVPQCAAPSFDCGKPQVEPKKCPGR
Protocol: as §3
(§4) Plasmin and Thrombin(Sensolyte RH110 Plasmin Activity Assay Kit and Sensolyte Thrombin Activity Assay Kit (Anaspec)): Reactions were conducted in a sample volume of 100 μL per well in a black 96 well plate. Protocol A was followed from the kit insert where the 2× assay buffer was diluted 1:1 with deionized water. Included in each assay were a positive control (diluted enzyme and no test compound), inhibitor control (contains diluted enzyme and plasmin inhibitor; component E from the kit or thrombin inhibitor; N-α-NAPAP synthetic inhibitor) and substrate control (assay buffer and substrate). Vehicle and autofluorescence controls were also performed. Drug dilutions were added (10 μL) at 10× concentrations in assay buffer. The enzyme was added at 40 μL/well at a concentration of 0.25 μg/mL (plasmin) and 1 μg/mL (thrombin) to all wells except the substrate control. Finally, 50 μL assay buffer containing substrate was added to each well. […] The fluorescence intensity was read on the Victor 3 plate reader at Ex/Em=490 nm/520 nm. […] Results are shown as substrate control adjusted percentages of maximum absorbance, which was given by the positive control.

[9] = target: T3, Thrombin (Homo sapiens, UniProt P00734); test: Inhibition of human proteases: thrombin; type: biochemical
T3 construct: purchased Anaspec
Protocol: as §3, §4

[10] = target: Hepatitis C Virus NS3/4A protease Wild Type (Hepatitis C virus genotype 1b, UniProt O92972); test: HCV NS3/4A protease FRET assay, wild type; type: biochemical
Hepatitis C Virus NS3/4A protease Wild Type, sequence (O92972 1027-1657): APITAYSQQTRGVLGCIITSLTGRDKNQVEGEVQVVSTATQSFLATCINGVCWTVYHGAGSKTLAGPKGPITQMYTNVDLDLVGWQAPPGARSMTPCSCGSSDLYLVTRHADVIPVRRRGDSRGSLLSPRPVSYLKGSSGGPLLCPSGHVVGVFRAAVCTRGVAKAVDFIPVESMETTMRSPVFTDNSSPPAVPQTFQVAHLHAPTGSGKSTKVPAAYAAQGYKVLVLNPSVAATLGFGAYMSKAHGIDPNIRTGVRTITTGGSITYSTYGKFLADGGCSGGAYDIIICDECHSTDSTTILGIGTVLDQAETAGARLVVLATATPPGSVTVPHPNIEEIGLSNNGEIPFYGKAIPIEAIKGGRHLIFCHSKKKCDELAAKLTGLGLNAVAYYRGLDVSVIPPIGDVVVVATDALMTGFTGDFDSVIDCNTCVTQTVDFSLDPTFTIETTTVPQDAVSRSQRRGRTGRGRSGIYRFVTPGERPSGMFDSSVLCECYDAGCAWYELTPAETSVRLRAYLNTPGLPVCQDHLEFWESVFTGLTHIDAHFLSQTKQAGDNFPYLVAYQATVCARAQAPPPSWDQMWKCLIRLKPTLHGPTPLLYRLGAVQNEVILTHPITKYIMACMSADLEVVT
Protocol: The HCV NS3/4A protease assays were carried out using a SensoLyte® 490 HCV Protease Assay Kit using fluorescence resonance energy transfer (FRET) peptide (AnaSpec).

[11] = target: Hepatitis C Virus NS3/4A protease V36M (Hepatitis C virus genotype 1b, UniProt O92972, V1062M); test: HCV NS3/4A protease FRET assay, V36M; type: biochemical
Hepatitis C Virus NS3/4A protease V36M, sequence (O92972 1027-1657 V1062M): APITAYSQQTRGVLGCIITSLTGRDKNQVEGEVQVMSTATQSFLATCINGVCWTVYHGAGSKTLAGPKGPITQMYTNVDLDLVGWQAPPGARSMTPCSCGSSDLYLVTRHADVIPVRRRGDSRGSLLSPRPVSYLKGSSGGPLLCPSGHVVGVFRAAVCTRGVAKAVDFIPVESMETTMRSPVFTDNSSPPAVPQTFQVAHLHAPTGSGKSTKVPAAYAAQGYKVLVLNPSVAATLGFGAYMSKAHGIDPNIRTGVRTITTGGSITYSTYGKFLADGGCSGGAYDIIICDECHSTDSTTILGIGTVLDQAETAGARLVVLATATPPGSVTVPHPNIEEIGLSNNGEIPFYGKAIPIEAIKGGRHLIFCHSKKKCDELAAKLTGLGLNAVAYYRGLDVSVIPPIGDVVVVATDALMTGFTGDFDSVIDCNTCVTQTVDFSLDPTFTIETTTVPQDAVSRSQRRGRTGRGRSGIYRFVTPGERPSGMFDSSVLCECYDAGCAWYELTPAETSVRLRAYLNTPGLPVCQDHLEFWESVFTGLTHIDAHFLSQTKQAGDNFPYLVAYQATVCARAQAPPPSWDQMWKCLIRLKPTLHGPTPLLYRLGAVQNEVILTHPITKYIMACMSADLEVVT
Hepatitis C Virus NS3/4A protease V36M, sequence (O92972 1658-1711 partner limits assumed): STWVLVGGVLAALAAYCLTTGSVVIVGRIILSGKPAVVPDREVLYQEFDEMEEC

[12] = target: Hepatitis C Virus NS3/4A protease A156S (Hepatitis C virus genotype 1b, UniProt O92972, A1182S); test: biochemical
Hepatitis C Virus NS3/4A protease A156S, sequence (O92972 1027-1657 A1182S): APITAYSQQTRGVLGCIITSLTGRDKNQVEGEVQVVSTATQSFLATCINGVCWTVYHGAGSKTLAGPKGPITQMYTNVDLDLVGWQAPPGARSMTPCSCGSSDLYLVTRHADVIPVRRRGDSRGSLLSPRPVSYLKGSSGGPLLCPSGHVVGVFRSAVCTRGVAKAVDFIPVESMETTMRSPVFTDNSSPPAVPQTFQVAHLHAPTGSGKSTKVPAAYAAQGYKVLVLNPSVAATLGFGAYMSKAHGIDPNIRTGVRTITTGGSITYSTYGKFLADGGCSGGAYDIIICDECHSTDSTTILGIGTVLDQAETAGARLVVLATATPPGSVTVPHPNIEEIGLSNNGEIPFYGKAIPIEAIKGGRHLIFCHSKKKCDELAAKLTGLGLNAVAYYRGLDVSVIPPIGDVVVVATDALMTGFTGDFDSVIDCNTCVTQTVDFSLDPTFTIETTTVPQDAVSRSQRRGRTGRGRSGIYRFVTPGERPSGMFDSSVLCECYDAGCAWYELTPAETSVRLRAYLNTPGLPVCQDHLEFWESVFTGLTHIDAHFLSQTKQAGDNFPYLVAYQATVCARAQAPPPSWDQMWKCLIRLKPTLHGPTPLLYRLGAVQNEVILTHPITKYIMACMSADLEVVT
Hepatitis C Virus NS3/4A protease A156S, sequence (O92972 1658-1711 partner limits assumed): as the sequence (O92972 1658-1711 partner limits assumed) above

In the case of `C=C[C@@H]1C[C@]1(NC(=O)[C@@H]1C[C@@H](OC(=O)N2Cc3cccc(F)c3C2)CN1C(=O)[C@@H](NC(=O)OC(C)(C)C)C(C)(C)C)C(=O)NS(=O)(=O)C1CC1` [Compound 10], the IC50 [1] is reported as greater than 100 µM, the inhibition at 100 µM [2] is reported as 17% and the IC50 [3] is reported as greater than 100 µM. The inhibition at 100 µM [4] was 11%, the “DCt rRNA” value ([5]; Conc 0.01 μM) was −0.21 and the “rRNA (% inhibition)” value ([5]; Conc 0.01 μM) was −15.99. The “DCt rRNA” value ([5]; Conc 0.03 μM) was −0.49, the “rRNA (% inhibition)” value ([5]; Conc 0.03 μM) was −40.10 and the “DCt rRNA” value ([5]; Conc 0.1 μM) was −0.09. The “rRNA (% inhibition)” value ([5]; Conc 0.1 μM) was −6.27, the “DCt rRNA” value ([5]; Conc 0.3 μM) was 0.14 and the “rRNA (% inhibition)” value ([5]; Conc 0.3 μM) was 9.35. The CC50 at 5 days [6] was greater than 0.3 µM, the IC50 [7] was greater than 100 µM and the IC50 [8] was greater than 100 µM. For the same molecule, the IC50 [9] was greater than 100 µM, the “Fold Increase of EC50” value [10] was 1.0 and the “Fold Increase of EC90” value [10] was 1.0. The EC50 ([10]; read-out: Anti-HCV protease activity EC50) was 0.0049 µM, the EC90 ([10]; read-out: Anti-HCV protease activity EC90) was 0.03 µM and the “Fold Increase of EC50” value ([11]; V36M vs Wild Type) was 0.7. The “Fold Increase of EC90” value ([11]; V36M vs Wild Type) was 1.5, the EC50 ([11]; V36M, read-out: Anti-HCV protease activity EC50) was 0.0034 µM and the EC90 ([11]; V36M, read-out: Anti-HCV protease activity EC90) was 0.0455 µM. The EC50 [12] was 0.008 µM and the EC90 ([12]; A156S, read-out: Anti-HCV protease activity EC90) was 0.085 µM.
